Where a name gives a salt, the structure may show the parent alone.
How the values were obtained:
mice [1] = experiment: Tail-flick test in mice; type: in vivo, Male Charles River mice (Swiss Strain); details: for ED50: Mus musculus, 0.5 h, read-out: ANALGESIA M. TAIL-FLICK (QUANTAL) ED50; for ED50 / ANALGESIA M. TAIL-FLICK (QUANTAL) ED50: subcutaneous, 30 min pretreatment, quantal protection, limits in brackets; for ANALGESIA M. TAIL-FLICK (QUANTAL) ED50: 30 min; for M. TAIL-FLICK (QUANTAL) % protection: at 10 mg
Procedure: B) Tail-flick test in mice
The methodology employed is based on that described by D'Amour and Smith, J. Pharmacol. Exp. Ther. 72, 74/1941.
Male Charles River mice (Swiss Strain), 22-34g body weight were used. Animals were allowed food and water ad libitum and were randomized into groups of 10 prior to experimentation.
Test compounds were dissolved in either distilled water or distilled water plus 0.1 M AMS and administered by the subcutaneous route in a final volume of 10 ml/Kg. Control animals received 10 ml/kg of the appropriate vehicle alone. Following a pretreatment period of 30 min., the mice were again placed under the heat source and the reaction tine re-determined.
Percentage quantal protection was determined as the number of mice in which the reaction time was doubled compared to pretreatment values, expressed as a percentage of the total number of mice in the group.

mice [2] = experiment: p-phenylquinone-induced abdominal writhing test in mice; type: in vivo, Male Charles River mice (Swiss Strain); details: subcutaneous, 20 min pretreatment, graded protection, limits in brackets; for ED50: Mus musculus, sc, 20 min, read-out: ANALGESIA M. WRITHING (GRADED) ED50
Procedure: A) p-phenylquinone-induced abdominal writhing test in mice
The methodology employed is based on that described by Sigmund et al, Proc. Soc. Exptl. Biol. 95, 729/1957, modified by Milne and Twomey, Agents and Actions, 10, 31/1980.
Male Charles River mice (Swiss Strain), 25-36g body weight, were used. Animals were allowed food and water ad libitum and were randomized into groups of 10 prior to experimentation. Test compounds were dissolved in either distilled water or distilled water plus 0.1 M AMS, and administered by the subcutaneous route in a final volume of 10 ml/Kg. Control animals received 10 ml/Kg of the appropriate vehicle alone. Following a pretreatment period of 20 min., mice were injected intraperitoneally with p-phenylquinone, 2 mg/Kg at 37 °C in a final volume of […]. […] During this period the number of abdominal writhing responses per animal were recorded where writhing consists of an intermittent contraction of the abdomen associated with hind leg extension.
The degree of antinociceptive protection afforded by the test compound was determined as the mean number of writhing responses observed in the treated group (T) expressed as a percentage of the mean number of writhing responses in the control group (C) according to the following formula: [1-(T/C]x100% = % graded protection

For `CC1(C)CCCN(C(=O)Cc2ccc(C(F)(F)F)cc2)C1CN1CCCC1` (racemic) [Example 10, 1-(4-trifluoromethylphenyl)acetyl-2-(pyrrolidin-1-yl)methyl-3,3-dimethyl piperidine hydrochloride], the ED50 (mice [1]; sc) was 0.116 mg/kg and the ED50 (mice [2]) was 0.023 mg/kg.

In the case of `CC1CCCN(C(=O)Cc2ccc(Cl)c(Cl)c2)C1CN1CCCC1` (single isomer, unassigned) [Example 1, 1-(3,4-dichlorophenyl)acetyl-2-(pyrrolidin-1-yl)methyl-3-methyl piperidine hydrochloride hemihydrate diasteroisomer A], the “ANALGESIA M. TAIL-FLICK (QUANTAL) ED50” value (mice [1]) is reported as 0.405 (0.230-0.607) mg/Kg sc.

For `CC1CCCN(C(=O)Cc2ccc(Cl)c(Cl)c2)C1CN1CCCC1` (single isomer, unassigned) [Example 2, 1-(3,4-dichlorophenyl)acetyl-2-(pyrrolidin-1-yl)methyl-3-methyl piperidine hydrochloride diasteroisomer B], the “ANALGESIA M. TAIL-FLICK (QUANTAL) ED50” value (mice [1]) was 0.147 (0.091-0.237) mg/Kg sc and the “ANALGESIA M. WRITHING (GRADED) ED50” value (mice [2]) was 0.091 (0.075-0.112) mg/Kg sc.

`CC1CCCC(CN2CCCC2)N1C(=O)Cc1ccc(Cl)c(Cl)c1` (single isomer, unassigned; diastereoisomer a) [Example 6, 1-(3,4-dichlorophenyl)acetyl-2-(pyrrolidin-1-yl)methyl-6-methyl piperidine hydrochloride hemihydrate Diastereoisomer A] was tested, and the “M. TAIL-FLICK (QUANTAL) % protection at single dose” value (mice [1]; sc, 1.78 mg/Kg) was “(1.78 mg/Kg 60%)”.

With `O=C(Cc1ccc(Cl)c(Cl)c1)N1CCCC(O)C1CN1CCCC1` (single isomer, unassigned; diastereoisomer a) [Example 7, 1-(3,4-dichlorophenyl)acetyl-2-(pyrrolidin-1-yl)methyl-3-hydroxy piperidine hydrochloride diastereoisomer A trans] the ED50 (mice [1]; sc) was 0.825 mg/kg, the “DURATION OF ACTION M. TAIL-FLICK (GRADED) % ACTIVITY AT MTFQ ED50 30'” value (mice [1]; dose = mouse tail-flick quantal ED50, 30') was 87% and the “DURATION OF ACTION M. TAIL-FLICK (GRADED) % ACTIVITY AT MTFQ ED50 90'” value (mice [1]; dose = mouse tail-flick quantal ED50, 90') was 39%. The ED50 (mice [2]) was 0.141 mg/kg.

In the case of `O=C(Cc1ccc(Cl)c(Cl)c1)N1CCCC(O)C1CN1CCCC1` (single isomer, unassigned; diastereoisomer b) [Example 8, 1-(3,4-dichlorophenyl)acetyl-2-(pyrrolidin-1-yl)methyl-3-hydroxy piperidine hydrochloride diastereoisomer B cis], the “M. TAIL-FLICK (QUANTAL) % protection” value (mice [1]; sc) is reported as “at 10 mg = 20% protection”.

`CC1(C)CCCN(C(=O)Cc2ccc3c(c2)CCCC3=O)C1CN1CCCC1` (stereo not drawn) [Example 13, 1-[1-oxo-3,4-dihydro-(2H)-napht-6-yl]acetyl-2-(pyrrolidin-1-yl)methyl-3,3-dimethyl piperidine] was tested, and the “M. TAIL-FLICK (QUANTAL) % protection” value (mice [1]; sc) was “at 10 mg = 60% protection”.
